{"source": "patent US7671230B2", "about": "“Derivatization and solubilization of insoluble classes of fullerenes” (TDA Research, Inc., priority 2001, dated 2010)", "key": {"[1]": {"details": "aqueous; compared with conventional inorganic chelates; cited from earlier work"}, "[2]": {"assay": "Solubility of fullerenic species and their derivatives in solvents", "format": "physicochemical", "details": "for solubility class: both non-polar and polar solvents; for solubility of derivative in organic solvents: common polar and non-polar organic solvents", "text": "Insoluble fullerenes are any fullerenic species generated by any known method which are not soluble in solvents (common solvents, i.e., non-polar organic solvents, such as hydrocarbons and arenes and halogenated arenes, including toluene, benzene) commonly employed to solublize fullerenes, such as C60. Solubility (or lack thereof) of a given fullerenic species in a given solvent can be assessed by methods known in the art, e.g., by assessing how much of a fullerenic species can be extracted into a given amount of solvent, for example, using mass spectrometric methods as illustrated herein. The insoluble classes of fullerenes are also insoluble in polar solvents. […] Non-derivatized fullerenic species are in general not soluble in almost all polar solvents. However, fullerenic species, if soluble have an anomalously high solubility in polar chloro and bromo substituted arenes. As discussed herein and as is understood in the art certain classes of non-derivatized fullerenic species are soluble in non-polar solvents such as toluene and benzene.\nThe methods of this invention can be used to derivatize insoluble fullerenic species and related carbon nanotube species to make them soluble (or to enhance the solubility of given fullerenic species or carbon nanotubes). Derivatization reaction of this invention may render the derivatized species soluble (or enhance its solubility) in common non-polar solvents or it may render the derivatized species soluble (or enhance its solubility) in polar solvents. For purposes of this application, solubility is defined as the dissolution of free molecules (or salts) in the solvent with reversibility to remove the solvent to obtain the molecules (or salts) dissolved. In preferred cases, the solvent is readily removed by application of reduced pressure and/ or by non-destructive heating. A species may also be removed from solution by recrystallization, for example by addition of solvent in which the species is not soluble to the solution. Certain solvents may readily dissolve a given species, but may not be removable to regenerate the species that was dissolved or it may not be possible to recrystallize the species unchanged. For example, the solvent may only be partially removable or the solvent may have reacted with the species causing a chemical change or irreversible adduct formation.\nIn general, fullerenes have “low solubility” in all solvents compared to most organic compounds. […] C60 is insoluble in polar solvents like acetonitrile and methanol (no measurable amount dissolves). […] C60 is soluble in substituted naphthalenes (30 to 50 mg/mL). […] As noted above, insoluble classes of fullerenic species are also insoluble in polar solvents."}, "[3]": {"assay": "Aqueous-phase size-exclusion chromatography (SEC-HPLC), aggregation", "format": "physicochemical", "procedure": "This derivatized metallofullerene, Gd@C60(C(COOCH2CH3)2)x, can be converted to a water-soluble species by de-esterification to carboxylic acid or carboxylate salt groups. This is performed by the method of Hirsch (Lamparth, 1994). The ester derivative (100 mg) is dissolved in toluene (15 mL) and vigorously stirred at reflux with excess solid NaH (100 mg) under argon for 2-3 hours. Next, methanol (3 mL) is added with stirring. Vigorous bubbling is observed, followed by precipitation of the sodium carboxylate salt of the Gd@C60 derivative. The solid is isolated, dissolved in water, and partially purified with dialysis tubing (MW cutoff˜500). The water is removed from an aqueous solution of the carboxylate with a rotary evaporator connected to a vacuum source; it is important to avoid decarboxylation by heating gently (<50° C.). Lowering the pH of aqueous solutions of the carboxylate salt can produce the acid form, which may have less water solubility depending on the number of acid groups present. […] Ion-exchange resin (Dowex-50, etc. etc.) can be used to change the counterion in Gd@C60(C(COONa)2)x to other alkali metals etc. or to hydrogen (proton) i.e. Gd@C60(C(COOH)2)x."}, "[4]": {"assay": "Air/water stability of derivatized materials (long-term stability of solutions, re-dissolution of exposed solids)", "format": "physicochemical", "details": "presence of oxygen and/or water; no evidence for decomposition over several months time"}}, "data": [{"substance": "Gd@C82(OH)x", "values": [{"measurement": "R1 relaxivity", "setting": "[1]", "result": "higher R1 values"}]}, {"substance": "^166Ho@C60(C(COONa)2)x", "values": [{"measurement": "water solubility", "setting": "[2]", "result": "water soluble"}]}, {"substance": "^166Ho@C60(C(COOCH2CH3)2)x", "values": [{"measurement": "solubility in THF after derivatization", "setting": "[2]; tetrahydrofuran", "result": "soluble"}]}, {"substance": "Gd@C60(C(COONa)2)x", "values": [{"measurement": "aggregation state in aqueous solution", "setting": "[3]", "result": "not clustered in large aggregates"}, {"measurement": "stability in air / oxygen and water", "setting": "[4]", "result": "air-stable"}, {"measurement": "water solubility", "setting": "[2]", "result": "fully water-soluble"}]}, {"substance": "Gd@C60", "values": [{"measurement": "solubility class", "setting": "[2]", "result": "Insoluble"}]}, {"substance": "C60(C33H48O12)", "values": [{"measurement": "solubility of derivative in organic solvents", "setting": "[2]", "result": "solubility in a variety of common polar and non-polar organic solvents"}]}, {"substance": "Gd@C60(C(COOH)2)x", "values": [{"measurement": "stability in air / oxygen and water", "setting": "[4]", "result": "air-stable"}]}, {"substance": "Gd@C60(C(COOCH2CH3)2)x", "values": [{"measurement": "stability in air / oxygen and water", "setting": "[4]", "result": "air-stable"}, {"measurement": "solubility of derivative in organic solvents", "setting": "[2]", "result": "solubility in a variety of common polar and non-polar organic solvents"}]}, {"substance": "Gd@C82", "values": [{"measurement": "solubility class", "setting": "[2]", "result": "Slightly Soluble"}]}]}
